In general, % Inhibition refers to how much of the control response was suppressed.

These results are taken from patent publication US6110901A (priority 1992, dated 2000).

For data set [1], the system named is influenza virus (strain A/NWS). Put plainly: microbe, parasite or virus in culture. It is filed as cell-based. As to conditions: MDCK, 48 h, read-out: IC50 Value Flu A/NWS.
The next data set concerns MDCK cells. Briefly: cells. In kind it is cell-based. As to conditions: Canis lupus familiaris, 48 h, read-out: IC50 Value Tox (beside Flu A/NWS).
Data set [2] deals with HRV 14 (human rhinovirus 14). Put plainly: HRV 14 growth in HeLa cells by MTT cell viability assay. As to conditions: Rhinovirus B, MTT at 48 hours after infection. In kind it is cell-based. As to the method: (§1) Mammalian cell lines, MDCK CCL34 and HeLa cells CCL2 (both obtained under those accession numbers from ATCC culture) are plated in 96 well microtiter dishes at a density of 3.5×10^4 cells per well and infected with virus at low multiplicity followed by treatment with drug 24 hours after plating of cells; drug concentrations range from 0.025-12.5 mM. MDCK cells are infected with influenza virus (strain A/NWS) and HeLA cells are infected with HRV 14-14VR-284 (obtained from ATCC) (human rhinovirus 14) or CVB3 VR30 (coxsackie virus B3 strain Nancy obtained from ATCC); replicate uninfected cell cultures are treated with drug as toxicity control. At 48 hours after infection the extent of virus growth is determined by ELISA in the case of influenza virus or by the MTT (tetrazolium dye) cell viability assay in the cases of HRV 14 and CVB3. The influenza A (A/NWS)VR-129 (ATCC) virus ELISA assay utilizes a primary monoclonal antibody to the virus hemagglutinin protein and a secondary antibody conjugated to B-galactosidase. Cytotoxicity of drugs in uninfected cell cultures is determined by MTT cell viability assay at 48 hours after drug treatment

In the next data set the test system is HeLa cells. Briefly: Cytotoxicity in uninfected HeLa cell cultures, MTT cell viability assay. As to conditions: MTT at 48 hours. In kind it is cell-based. As to the method: as §1
(In general: Formazan colour is commonly taken as a measure of viable cells.)

Data set [3] concerns CVB3 (coxsackie virus B3 strain Nancy). Briefly: CVB3 growth in HeLa cells by MTT cell viability assay. In kind it is cell-based. As to conditions: Enterovirus B, MTT at 48 hours after infection. As to the method:
as §1

Data set [4] relates to influenza A virus (strain A/NWS). To be noted: mouse, in vivo.
Data set [5] has as its target influenza virus RNA polymerase (Influenza A virus, UniProt P03431). It is filed as biochemical.
The target of another data set is VSV RNA polymerase (Vesicular stomatitis Indiana virus, UniProt P03523). It is filed as biochemical, Vesicular stomatitus virus (VSV).
VSV RNA polymerase, sequence (P03523 whole entry, looked up): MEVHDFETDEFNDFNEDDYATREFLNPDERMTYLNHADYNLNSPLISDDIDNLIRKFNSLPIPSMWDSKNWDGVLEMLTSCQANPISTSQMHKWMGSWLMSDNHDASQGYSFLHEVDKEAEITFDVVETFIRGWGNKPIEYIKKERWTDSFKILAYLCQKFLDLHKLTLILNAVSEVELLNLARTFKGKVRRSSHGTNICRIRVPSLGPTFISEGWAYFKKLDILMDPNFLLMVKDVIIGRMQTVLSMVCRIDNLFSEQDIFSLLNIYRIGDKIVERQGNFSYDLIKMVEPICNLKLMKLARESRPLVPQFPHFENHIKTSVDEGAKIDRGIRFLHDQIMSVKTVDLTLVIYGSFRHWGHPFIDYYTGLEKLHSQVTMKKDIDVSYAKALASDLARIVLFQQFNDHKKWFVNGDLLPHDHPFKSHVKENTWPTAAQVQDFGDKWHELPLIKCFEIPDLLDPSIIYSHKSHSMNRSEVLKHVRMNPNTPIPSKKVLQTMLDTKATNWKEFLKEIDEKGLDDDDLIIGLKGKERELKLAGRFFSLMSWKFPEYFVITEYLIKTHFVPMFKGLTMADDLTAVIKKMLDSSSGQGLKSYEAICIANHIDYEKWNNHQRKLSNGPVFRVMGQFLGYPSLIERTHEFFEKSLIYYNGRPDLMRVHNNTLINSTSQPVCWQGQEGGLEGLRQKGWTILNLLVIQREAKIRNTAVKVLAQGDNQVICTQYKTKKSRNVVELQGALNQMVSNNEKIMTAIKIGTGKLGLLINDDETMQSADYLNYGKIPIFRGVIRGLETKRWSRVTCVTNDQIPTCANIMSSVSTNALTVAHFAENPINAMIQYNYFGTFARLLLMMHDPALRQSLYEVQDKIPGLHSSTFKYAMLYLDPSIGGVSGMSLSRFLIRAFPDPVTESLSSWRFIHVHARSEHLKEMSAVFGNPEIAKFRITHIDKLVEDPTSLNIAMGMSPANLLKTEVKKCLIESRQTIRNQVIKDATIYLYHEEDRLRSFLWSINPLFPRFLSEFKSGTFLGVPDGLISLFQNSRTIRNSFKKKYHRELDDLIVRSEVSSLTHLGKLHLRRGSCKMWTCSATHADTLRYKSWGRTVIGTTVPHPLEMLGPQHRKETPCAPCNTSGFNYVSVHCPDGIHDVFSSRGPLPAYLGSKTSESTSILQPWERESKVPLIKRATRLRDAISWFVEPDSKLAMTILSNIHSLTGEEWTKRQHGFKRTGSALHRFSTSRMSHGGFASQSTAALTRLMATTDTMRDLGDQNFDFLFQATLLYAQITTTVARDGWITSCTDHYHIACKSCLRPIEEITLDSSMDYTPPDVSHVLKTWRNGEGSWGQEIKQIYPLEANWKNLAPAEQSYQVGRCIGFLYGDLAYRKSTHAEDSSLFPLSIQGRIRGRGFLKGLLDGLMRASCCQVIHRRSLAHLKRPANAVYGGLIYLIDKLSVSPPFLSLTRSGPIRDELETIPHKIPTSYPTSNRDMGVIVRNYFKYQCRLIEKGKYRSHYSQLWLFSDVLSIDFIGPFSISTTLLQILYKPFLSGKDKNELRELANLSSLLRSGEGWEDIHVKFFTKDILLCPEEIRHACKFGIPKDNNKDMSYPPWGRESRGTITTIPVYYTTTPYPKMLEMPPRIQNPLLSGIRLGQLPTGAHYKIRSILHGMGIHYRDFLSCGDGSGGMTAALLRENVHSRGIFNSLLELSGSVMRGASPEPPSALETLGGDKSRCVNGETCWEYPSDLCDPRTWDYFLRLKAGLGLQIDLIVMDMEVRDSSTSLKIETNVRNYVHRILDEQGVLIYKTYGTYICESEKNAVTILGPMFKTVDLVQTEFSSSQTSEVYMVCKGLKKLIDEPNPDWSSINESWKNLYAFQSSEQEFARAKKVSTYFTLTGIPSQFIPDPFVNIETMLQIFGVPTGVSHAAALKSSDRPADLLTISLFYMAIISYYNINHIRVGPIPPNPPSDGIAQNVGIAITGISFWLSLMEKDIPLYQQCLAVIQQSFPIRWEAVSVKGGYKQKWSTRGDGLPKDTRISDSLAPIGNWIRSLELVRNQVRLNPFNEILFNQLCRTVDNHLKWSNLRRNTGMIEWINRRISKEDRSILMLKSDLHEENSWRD
The mark [6] stands for this setting: Homo sapiens, read-out: IC50 Value Tox (beside CVB3).
Where [7] appears, read: Homo sapiens, read-out: IC50 Value Tox (beside HRV 14).
[8] abbreviates: read-out: IC50 Value Tox (beside CVB3).

Molecules are shown by their SMILES. Values joined by “and” are separate entries in the source; they are usually repeats but may differ in a detail not shown here. Identical values can stand only once. Like-named read-outs stand apart in the source and are kept apart here. A value given as a limit tells only on which side of the number the result lay.

influenza virus RNA polymerase, sequence (P03431 whole entry, looked up): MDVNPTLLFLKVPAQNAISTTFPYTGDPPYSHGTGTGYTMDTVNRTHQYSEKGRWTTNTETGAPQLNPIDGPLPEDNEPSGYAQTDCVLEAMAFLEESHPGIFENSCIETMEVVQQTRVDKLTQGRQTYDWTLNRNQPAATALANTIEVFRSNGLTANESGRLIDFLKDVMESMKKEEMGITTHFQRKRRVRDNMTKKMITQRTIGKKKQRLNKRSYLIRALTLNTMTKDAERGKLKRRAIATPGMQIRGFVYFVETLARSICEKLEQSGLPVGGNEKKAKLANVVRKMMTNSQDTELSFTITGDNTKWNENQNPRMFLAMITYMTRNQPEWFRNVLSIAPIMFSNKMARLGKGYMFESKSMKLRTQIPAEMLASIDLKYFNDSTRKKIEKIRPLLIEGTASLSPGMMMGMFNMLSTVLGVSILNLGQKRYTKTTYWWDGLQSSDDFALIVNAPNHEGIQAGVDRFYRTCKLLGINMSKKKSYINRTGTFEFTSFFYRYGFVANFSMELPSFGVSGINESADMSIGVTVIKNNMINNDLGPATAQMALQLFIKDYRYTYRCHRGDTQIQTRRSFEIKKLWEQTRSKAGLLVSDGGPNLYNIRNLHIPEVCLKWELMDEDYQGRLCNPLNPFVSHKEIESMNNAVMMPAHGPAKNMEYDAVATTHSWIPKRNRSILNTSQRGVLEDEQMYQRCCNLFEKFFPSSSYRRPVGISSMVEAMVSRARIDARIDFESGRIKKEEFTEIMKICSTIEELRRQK

In the case of `Nc1ccn([C@@H]2O[C@H](CO)C[C@H]2O)c(=O)n1` [3'-dC, 3'-deoxyribocytosine], the IC50 in data set [1] came out at 900 µM; in the data set on MDCK cells, 5000 µM; in data set [2], 25 µM; in the data set with HeLa cells (setting [6]), 1800 µM; in the data set with HeLa cells (setting [7]), 1800 µM; in data set [3], 90 µM. Besides, the “% ILS (increase in life span)” value in data set [4] was 10% and 20%. Further, the “% Survival (14 Days)” value in data set [4] is 0% and 10%. The “Antiviral activity in murine model of influenza A virus infection” value in data set [4] is given as “minimal antiviral activity”. In addition, the “MST” value in data set [4] was 11 days and 12 days.
In the case of `CO[C@H]1[C@@H](O)[C@H](n2ccc(N)nc2=O)O[C@@H]1CO` [3'-OMeC], the IC50 in the data set on MDCK cells and in the data set on HeLa cells (setting [7]) was over 50000 µM in each case.
In the case of `Nc1ncnc2c1ncn2[C@@H]1O[C@H](CO)C[C@H]1O` [3'-dA, 3'-deoxyriboadenine], the IC50 amounted to 800 µM in data set [1], 1400 µM in the data set with MDCK cells, 48 µM in data set [2] and 130 µM in the data set with HeLa cells (setting [7]).
For the compound `[N-]=[N+]=N[C@H]1C[C@H](n2ccc(=O)[nH]c2=O)O[C@@H]1CO` [3'-AzdU], the IC50 with HeLa cells (setting [8]) was over 12500 µM.
In the case of `Nc1nc2c(ncn2[C@@H]2O[C@H](COP(=O)(O)OP(=O)(O)OP(=O)(O)O)C[C@H]2O)c(=O)[nH]1` [3'-d GTP, 3'-deoxy-GTP], in data set [5], the “% Inhibition” value stood at 55% and the “Activity against the influenza virus RNA polymerase” value is “fairly good inhibitor”. Moreover, at VSV RNA polymerase, the “% Inhibition” value is 13% and 7%; the “Effect on VSV RNA polymerase” value is given as “only weakly inhibitory”.
Consider `Nc1ccn([C@@H]2O[C@H](COP(=O)(O)OP(=O)(O)OP(=O)(O)O)C[C@H]2O)c(=O)n1` [3'-d CTP, 3'-deoxy-CTP], for which the “Activity against the influenza virus RNA polymerase” value in data set [5] was “low to moderately inhibitory activity”. Further, on VSV RNA polymerase, the “% Inhibition” value was 0% and the “Effect on VSV RNA polymerase” value is listed as “does not inhibit”.
With `[N-]=[N+]=N[C@H]1C[C@H](n2ccc(N)nc2=O)O[C@@H]1CO` [3'-AzdC], the IC50 in the data set with HeLa cells (setting [8]) was over 12500 µM.
For the compound `Nc1nc2c(ncn2[C@@H]2O[C@H](CO)C[C@H]2O)c(=O)[nH]1` [3'-dG, 3'-deoxyriboguanine], the IC50 in data set [1] stood at 270 µM; in the data set on MDCK cells, 2100 µM; in data set [2] it was 280 µM; with HeLa cells (setting [7]) it was 3400 µM.
With `CO[C@H]1[C@@H](O)[C@H](n2ccc(=O)[nH]c2=O)O[C@@H]1CO` [3'-OMeU], the IC50 with MDCK cells and in the data set on HeLa cells (setting [7]) was over 50000 µM throughout.
Take `CO[C@H]1[C@@H](O)[C@H](n2cnc3c(N)ncnc32)O[C@@H]1CO` [3'-OMeA]: the IC50 in the data set on MDCK cells and in the data set on HeLa cells (setting [7]) was over 50000 µM in each case.
Take `O=c1ccn([C@@H]2O[C@H](CO)C[C@H]2O)c(=O)[nH]1` [3'-dU, 3'-deoxyribouracil]: the IC50 in data set [1] was determined as 85 µM; with MDCK cells, 12500 µM; in data set [2], 27 µM; in the data set on HeLa cells (setting [6]) it was 2400 µM; in the data set on HeLa cells (setting [7]) it was 2400 µM; in data set [3], 90 µM. Moreover, the “MST” value in data set [4] was > 14 days and 10 days. Besides, the “Protection of animals in murine model of influenza A virus infection” value in data set [4] is “significant protection”. Besides, the “Toxicity in mice” value in data set [4] was “appears to have toxicity”.
For the compound `CO[C@H]1[C@@H](O)[C@H](n2cnc3c(=O)[nH]c(N)nc32)O[C@@H]1CO` [3'-OMeG], the IC50 in the data set with MDCK cells and in the data set on HeLa cells (setting [7]) was over 50000 µM in each case.
Consider `O=c1ccn([C@@H]2O[C@H](COP(=O)(O)OP(=O)(O)OP(=O)(O)O)C[C@H]2O)c(=O)[nH]1` [3'-d UTP, 3'-deoxy UTP], for which, in data set [5], the “Activity against the influenza virus RNA polymerase” value is given as “moderately active”. At VSV RNA polymerase, the “Effect on VSV RNA polymerase” value is recorded as “little or no effect”.
